Drawing on article PMC9030254, “Target Hopping from Protein Kinases to PXR: Identification of Small-Molecule Protein Kinase Inhibitors as Selective Modulators of Pregnane X Receptor from TüKIC Library” (Cells, 2022), this text covers Residual activity for two compounds.

Assay in all cases: Kinase profiling
Holding throughout (format): biochemical

For experiment [1], the target named is T1, MAP3K7/MAP3K7IP1 (Homo sapiens, UniProt O43318).
T1 construct: purchased ProQinase (Freiburg, Germany)
T1 sequence (O43318 1-303 limits assumed): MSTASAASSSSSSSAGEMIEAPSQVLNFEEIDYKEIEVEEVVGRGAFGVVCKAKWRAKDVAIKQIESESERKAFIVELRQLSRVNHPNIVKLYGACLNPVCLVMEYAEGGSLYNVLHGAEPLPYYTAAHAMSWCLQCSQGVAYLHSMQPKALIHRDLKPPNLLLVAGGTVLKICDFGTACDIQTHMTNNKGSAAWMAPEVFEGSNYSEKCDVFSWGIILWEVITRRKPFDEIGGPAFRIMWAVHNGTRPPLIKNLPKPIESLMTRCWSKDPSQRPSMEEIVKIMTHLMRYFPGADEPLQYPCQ
On the procedure:
(§1) The analysis was performed by ProQinase (Freiburg, Germany).

The target in experiment [2] is T2, GSK3alpha (Homo sapiens, UniProt P49840).
T2 construct: purchased ProQinase (Freiburg, Germany)
On the procedure: as §1

For experiment [3], the target named is T3, EPHB4 (Homo sapiens, UniProt P54760).
T3 construct: purchased ProQinase (Freiburg, Germany)
T3 sequence (P54760 16-987): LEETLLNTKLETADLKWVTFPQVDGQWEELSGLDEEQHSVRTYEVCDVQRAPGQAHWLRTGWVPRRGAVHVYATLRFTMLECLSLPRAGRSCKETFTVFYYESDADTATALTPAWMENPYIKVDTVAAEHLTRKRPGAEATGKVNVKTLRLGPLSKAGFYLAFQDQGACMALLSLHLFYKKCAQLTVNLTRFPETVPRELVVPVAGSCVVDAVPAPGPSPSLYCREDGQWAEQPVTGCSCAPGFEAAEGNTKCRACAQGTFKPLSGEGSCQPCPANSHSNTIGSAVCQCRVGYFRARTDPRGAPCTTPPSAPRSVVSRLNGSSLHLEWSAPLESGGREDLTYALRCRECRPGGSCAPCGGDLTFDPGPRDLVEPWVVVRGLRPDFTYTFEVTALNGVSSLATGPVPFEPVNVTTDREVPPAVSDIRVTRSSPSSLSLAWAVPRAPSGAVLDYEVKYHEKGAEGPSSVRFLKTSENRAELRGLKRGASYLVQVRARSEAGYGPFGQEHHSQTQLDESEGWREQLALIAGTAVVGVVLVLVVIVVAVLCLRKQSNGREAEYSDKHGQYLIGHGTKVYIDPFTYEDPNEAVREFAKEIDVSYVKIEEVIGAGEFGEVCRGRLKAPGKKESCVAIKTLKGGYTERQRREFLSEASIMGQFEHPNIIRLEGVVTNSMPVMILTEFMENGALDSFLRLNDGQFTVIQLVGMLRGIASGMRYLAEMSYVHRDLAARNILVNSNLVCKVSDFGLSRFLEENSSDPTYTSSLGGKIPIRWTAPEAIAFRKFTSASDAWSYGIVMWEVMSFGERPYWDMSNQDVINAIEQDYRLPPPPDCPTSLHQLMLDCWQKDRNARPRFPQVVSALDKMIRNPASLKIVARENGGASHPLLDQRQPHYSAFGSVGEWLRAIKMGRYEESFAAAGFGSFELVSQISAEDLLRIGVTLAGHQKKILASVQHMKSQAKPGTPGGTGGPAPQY
Here is the method:
as §1

The target of experiment [4] is T4, TXK (Homo sapiens, UniProt P42681).
T4 construct: purchased ProQinase (Freiburg, Germany)
T4 sequence (P42681 1-527): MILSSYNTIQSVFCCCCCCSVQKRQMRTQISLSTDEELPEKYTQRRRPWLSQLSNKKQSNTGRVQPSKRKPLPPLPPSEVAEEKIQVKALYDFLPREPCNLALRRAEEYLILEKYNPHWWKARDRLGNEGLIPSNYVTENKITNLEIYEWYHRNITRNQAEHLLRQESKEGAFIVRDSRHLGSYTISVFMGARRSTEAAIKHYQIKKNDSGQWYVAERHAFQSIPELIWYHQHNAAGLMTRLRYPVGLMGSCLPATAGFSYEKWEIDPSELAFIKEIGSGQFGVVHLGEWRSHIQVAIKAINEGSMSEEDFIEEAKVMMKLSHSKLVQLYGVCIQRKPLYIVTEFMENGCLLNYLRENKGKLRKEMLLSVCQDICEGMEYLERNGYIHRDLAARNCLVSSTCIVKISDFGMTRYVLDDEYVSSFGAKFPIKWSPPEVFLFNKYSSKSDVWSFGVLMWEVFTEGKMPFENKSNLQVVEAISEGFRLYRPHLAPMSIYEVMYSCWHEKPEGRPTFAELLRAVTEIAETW
Here is the method:
as §1

Experiment [5] has as its target T5, PKCzeta (Homo sapiens, UniProt Q05513).
T5 construct: purchased ProQinase (Freiburg, Germany)
T5 sequence (Q05513 1-592): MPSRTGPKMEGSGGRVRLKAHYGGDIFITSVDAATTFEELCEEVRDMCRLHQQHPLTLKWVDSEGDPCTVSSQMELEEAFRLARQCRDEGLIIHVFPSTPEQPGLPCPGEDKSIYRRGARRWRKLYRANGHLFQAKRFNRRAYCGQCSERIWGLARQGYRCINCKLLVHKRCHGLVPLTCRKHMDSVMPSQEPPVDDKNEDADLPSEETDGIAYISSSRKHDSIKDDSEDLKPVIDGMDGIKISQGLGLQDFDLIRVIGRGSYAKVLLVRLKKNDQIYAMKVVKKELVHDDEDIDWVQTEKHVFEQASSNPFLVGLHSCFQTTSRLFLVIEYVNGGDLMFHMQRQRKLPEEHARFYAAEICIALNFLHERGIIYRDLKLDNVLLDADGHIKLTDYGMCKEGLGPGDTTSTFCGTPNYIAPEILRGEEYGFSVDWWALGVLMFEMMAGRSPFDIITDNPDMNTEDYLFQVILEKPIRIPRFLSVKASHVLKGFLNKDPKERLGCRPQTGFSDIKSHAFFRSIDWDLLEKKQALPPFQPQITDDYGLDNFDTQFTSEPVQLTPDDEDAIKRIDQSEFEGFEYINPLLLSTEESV
Here is the method:
as §1

Experiment [6] deals with T6, EPHA7 (Homo sapiens, UniProt Q15375).
T6 construct: purchased ProQinase (Freiburg, Germany)
Here is the method: as §1

Experiment [7] concerns the target T7, PLK1 (Homo sapiens, UniProt P53350).
T7 construct: purchased ProQinase (Freiburg, Germany)
Here is the method: as §1

T6 sequence (Q15375 28-998): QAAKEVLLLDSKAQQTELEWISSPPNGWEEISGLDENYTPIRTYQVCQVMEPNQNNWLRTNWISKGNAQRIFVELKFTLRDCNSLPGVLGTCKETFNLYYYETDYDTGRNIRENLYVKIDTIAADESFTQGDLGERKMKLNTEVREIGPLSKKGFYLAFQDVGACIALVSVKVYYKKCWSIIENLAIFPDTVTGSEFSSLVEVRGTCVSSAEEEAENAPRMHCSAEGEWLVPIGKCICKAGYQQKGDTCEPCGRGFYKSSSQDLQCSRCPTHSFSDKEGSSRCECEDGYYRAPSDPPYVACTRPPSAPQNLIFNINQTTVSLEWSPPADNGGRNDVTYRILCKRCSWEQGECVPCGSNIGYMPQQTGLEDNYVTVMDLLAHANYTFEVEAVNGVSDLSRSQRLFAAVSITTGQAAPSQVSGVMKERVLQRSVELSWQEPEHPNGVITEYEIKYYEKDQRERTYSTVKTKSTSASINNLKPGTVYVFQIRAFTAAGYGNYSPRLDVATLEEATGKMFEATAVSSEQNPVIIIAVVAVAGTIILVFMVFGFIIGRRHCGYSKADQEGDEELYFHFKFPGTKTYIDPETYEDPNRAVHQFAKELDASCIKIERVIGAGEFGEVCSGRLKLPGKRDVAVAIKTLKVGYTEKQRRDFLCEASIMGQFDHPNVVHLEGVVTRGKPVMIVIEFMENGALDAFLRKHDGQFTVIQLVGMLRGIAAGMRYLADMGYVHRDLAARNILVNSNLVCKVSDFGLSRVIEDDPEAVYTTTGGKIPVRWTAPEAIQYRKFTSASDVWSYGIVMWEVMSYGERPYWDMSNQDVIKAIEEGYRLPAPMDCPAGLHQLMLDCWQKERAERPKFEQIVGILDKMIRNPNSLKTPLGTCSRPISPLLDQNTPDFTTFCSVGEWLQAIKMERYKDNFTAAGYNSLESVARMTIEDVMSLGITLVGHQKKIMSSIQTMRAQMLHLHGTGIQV
T7 sequence (P53350 whole entry): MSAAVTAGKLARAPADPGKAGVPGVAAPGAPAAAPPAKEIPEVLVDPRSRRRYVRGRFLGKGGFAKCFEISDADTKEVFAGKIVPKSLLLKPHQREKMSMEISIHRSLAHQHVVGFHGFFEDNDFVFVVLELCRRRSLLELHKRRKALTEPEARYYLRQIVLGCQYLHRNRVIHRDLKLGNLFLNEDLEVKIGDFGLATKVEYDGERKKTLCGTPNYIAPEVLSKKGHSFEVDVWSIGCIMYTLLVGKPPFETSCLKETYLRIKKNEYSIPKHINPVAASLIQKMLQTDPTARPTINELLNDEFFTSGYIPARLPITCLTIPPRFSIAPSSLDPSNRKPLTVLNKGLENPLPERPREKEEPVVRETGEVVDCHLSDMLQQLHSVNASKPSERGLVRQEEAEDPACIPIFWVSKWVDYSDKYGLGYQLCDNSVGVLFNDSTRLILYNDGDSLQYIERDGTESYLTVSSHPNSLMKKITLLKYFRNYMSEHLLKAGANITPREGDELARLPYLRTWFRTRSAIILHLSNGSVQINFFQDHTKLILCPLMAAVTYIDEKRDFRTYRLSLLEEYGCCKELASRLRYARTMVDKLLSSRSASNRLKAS
T2 sequence (P49840 whole entry): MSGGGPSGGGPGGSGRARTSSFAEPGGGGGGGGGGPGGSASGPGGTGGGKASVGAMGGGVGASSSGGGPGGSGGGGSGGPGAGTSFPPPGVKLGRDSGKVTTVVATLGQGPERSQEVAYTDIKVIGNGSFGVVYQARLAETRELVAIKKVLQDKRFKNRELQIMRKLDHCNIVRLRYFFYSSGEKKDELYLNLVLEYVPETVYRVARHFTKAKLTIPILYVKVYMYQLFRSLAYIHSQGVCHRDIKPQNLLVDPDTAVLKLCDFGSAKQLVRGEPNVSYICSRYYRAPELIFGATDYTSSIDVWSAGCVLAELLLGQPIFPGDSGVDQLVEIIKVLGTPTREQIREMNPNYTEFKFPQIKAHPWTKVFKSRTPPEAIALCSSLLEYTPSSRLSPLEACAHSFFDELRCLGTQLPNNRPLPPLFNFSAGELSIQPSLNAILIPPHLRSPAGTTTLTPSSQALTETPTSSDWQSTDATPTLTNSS

With `O=C(Nc1ccc(F)c(Nc2ccc3c(c2)CCCCC3=O)c1)c1cccc(F)c1` [Compound 109], the Residual activity was 91 % of control in experiment [1] (1.0E-05 M); 91 % of control in experiment [1] (1.0E-06 M); 106 % of control in experiment [2] (1.0E-05 M); 112 % of control in experiment [2] (1.0E-06 M); 82 % of control in experiment [3] (1.0E-05 M); 100 % of control in experiment [3] (1.0E-06 M). In addition, the Residual activity in experiment [4] (1.0E-05 M) is recorded as 97 % of control; in experiment [4] (1.0E-06 M) it was 97 % of control; in experiment [5] (1.0E-05 M) it was 96 % of control; in experiment [5] (1.0E-06 M) it was 87 % of control; in experiment [6] (1.0E-05 M), 96 % of control; in experiment [6] (1.0E-06 M), 85 % of control. Moreover, the Residual activity is on record as 96 % of control in experiment [7] (1.0E-05 M) and 94 % of control in experiment [7] (1.0E-06 M).

`O=C(Cc1ccccc1)Nc1ccc(F)c(Nc2ccc3c(c2)CCCCC3=O)c1` [Compound 100]: the Residual activity in experiment [1] (1.0E-05 M) is 91 % of control; in experiment [1] (1.0E-06 M), 88 % of control; in experiment [2] (1.0E-05 M) it was 90 % of control; in experiment [2] (1.0E-06 M) it was 109 % of control; in experiment [3] (1.0E-05 M), 74 % of control; in experiment [3] (1.0E-06 M), 99 % of control. Besides, the Residual activity in experiment [4] (1.0E-05 M) is 90 % of control; in experiment [4] (1.0E-06 M) it was 100 % of control; in experiment [5] (1.0E-05 M) it was 102 % of control; in experiment [5] (1.0E-06 M), 92 % of control; in experiment [6] (1.0E-05 M), 101 % of control; in experiment [6] (1.0E-06 M), 103 % of control. Further, the figures for the Residual activity in experiment [7] (1.0E-05 M) and in experiment [7] (1.0E-06 M) were 90 % of control and 103 % of control, respectively.
